Test results published in patent US6001867A, “1-aryl-dibenzothiophenes” (American Home Products Corporation, priority 1999, dated 1999).

What was measured:
[1] = target: T1, Human recombinant PTP1B (hPTP1B) (Homo sapiens, UniProt P18031)
T1 sequence (P18031 1-435): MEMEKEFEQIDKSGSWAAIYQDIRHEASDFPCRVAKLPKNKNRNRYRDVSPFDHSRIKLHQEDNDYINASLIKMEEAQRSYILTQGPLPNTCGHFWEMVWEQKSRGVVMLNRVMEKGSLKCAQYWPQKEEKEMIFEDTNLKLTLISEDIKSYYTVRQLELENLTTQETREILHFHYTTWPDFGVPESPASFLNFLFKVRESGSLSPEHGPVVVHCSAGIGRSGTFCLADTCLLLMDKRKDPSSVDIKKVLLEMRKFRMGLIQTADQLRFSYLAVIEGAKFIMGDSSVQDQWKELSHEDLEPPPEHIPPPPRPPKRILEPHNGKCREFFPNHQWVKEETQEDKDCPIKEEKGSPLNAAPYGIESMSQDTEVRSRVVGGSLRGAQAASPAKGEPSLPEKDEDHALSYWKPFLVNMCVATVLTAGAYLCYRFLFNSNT

[2] = test system: rat hepatic microsomal PTPases; settings: test compound 50 μM; rat hepatic microsomal fraction; substrate 50 uM, 37 deg.C
[3] = literature study; cited from earlier work

Structure (SMILES)	IC50 [1]	% Change from Control (PTPase activity) [2]	carcinogenicity [3]
Oc1ccc(-c2c(Br)ccc3sc4ccccc4c23)cc1 [Example 6, 4-(2-Bromo-dibenzothiophen-1-yl)-phenol]	–	-31.13%	–
COC(=O)COc1ccc(-c2c(Br)ccc3sc4ccccc4c23)cc1 [Example 10, [4-(2-Bromo-dibenzothiophen-1-yl)-phenoxy]-acetic Acid Methyl Ester]	–	-21.11%	–
Oc1c(Br)cc(-c2cccc3sc4ccccc4c23)cc1Br [Example 7, 2,6-Dibromo-4-(dibenzothiophen-1-yl)-phenol]	1.89 µM	-18.53%	–
Oc1ccc(-c2cccc3sc4ccccc4c23)cc1 [Example 3, 4-(Dibenzothiophen-1-yl)-phenol]	–	-51.63%	–
CN(C)c1ccc(-c2cccc3sc4ccccc4c23)cc1 [compound A (R=NMe2, R'=H)]	–	–	inactive

Now from value to compound, other results behind:

IC50 [1]	% Change from Control (PTPase activity) [2]	Structure (SMILES)	carcinogenicity [3]
0.604 µM	-75.69%	O=C(O)[C@@H](Cc1ccccc1)Oc1c(Br)cc(-c2c(Br)ccc3sc4ccccc4c23)cc1Br [Example 20]	–
1.39 µM	-87.44%	O=C(O)[C@@H](CCN1C(=O)c2ccccc2C1=O)Oc1c(Br)cc(-c2c(Br)ccc3sc4ccccc4c23)cc1Br [Example 21, (R)-2-[2,6-Dibromo-4-(2-bromo-dibenzothiophen-1-yl)-phenoxy]-4-(1,3-dioxo-1,3-dihydro-isoindol-2-yl)-butyric acid]	–
1.33 µM	-81.43%	O=C(O)[C@@H](Cc1ccccc1)Oc1c(Br)cc(-c2cccc3sc4ccccc4c23)cc1Br [Example 19, (R)-2-[2,6-Dibromo-4-(dibenzothiophen-1-yl)-phenoxy]-3-phenyl-propionic acid]	–
–	-42.62%	O=C(O)COc1ccc(-c2c(Br)ccc3sc4ccccc4c23)cc1 [Example 13, [4-(2-Bromo-dibenzothiophen-1-yl)-phenoxy]-acetic Acid]	–
–	-74.88%	O=C(O)COc1c(Br)cc(-c2cccc3sc4ccccc4c23)cc1Br [Example 14, [2,6-Dibromo-4-(dibenzothiophen-1-yl)-phenoxy]-acetic acid]	–
–	-19.49%	O=C(O)COc1ccc(-c2cccc3sc4ccccc4c23)cc1 [Example 12, [4-(Dibenzothiophen-1-yl)-phenoxy]-acetic Acid]	–
